Data from patent US20230293526A1, “METHOD FOR TREATING CANCER WITH A REVERSE TRANSCRIPTASE INHIBITOR” (PrimeFour Therapeutics, Inc., priority 2020, published 2023).
Like-named read-outs stand apart in the source and are kept apart here.

Test system: human LINE-1
Assay: Human LINE-1 (L1) retrotransposition dual-luciferase reporter assay in HeLa cells
Type: cell-based
Conditions: read-out: Human LINE-1 IC50 (Human L1 activity inhibition)
Method: Representative compounds were tested for inhibition of retrotransposition activity of human LINE-1 (L1) retrotransposition reporter assay in HeLa cells according to the following procedure.
Human Cervical Adenocarcinoma Cells (HeLa) were cultured in Dulbecco's Modified Eagle's Medium (DMEM) containing 4500 mg/L glucose, L-glutamine, sodium pyruvate and sodium bicarbonate, supplemented with 10% of heat inactivated fetal bovine serum (FBS). Cells were grown at 37° C. in an atmosphere of 5% CO2. The dual luciferase-encoding plasmid pYX017 was provided by Prof Wenfeng An (Xie, et al., 2011, Nucleic Acids Res).
The reporter assay was performed in 96-well white, optical bottom plates (Thermo Fisher, 165306). 24 hours prior to transfection, HeLa cells were seeded in a density of 2,500 cells per well, in 50 μL of DMEM, 10% FBS media volume. Cells were incubated at 37° C. in an atmosphere of 5% CO2. Seeding was optimized to achieve approximately 30% cell confluency on the day of transfection. A transfection mix was prepared by combining transfection reagent FuGENE® HD (Promega, E2311) and plasmid DNA (100 ng per well) in a 3:1 ratio, in OpiMEM media (Thermo Fisher, 31985062). Next, 5 μL of the transfection mix was combined with 20 μL of DMEM, 10% FBS media, and 25 μL of this mix was added into each well of an assay plate. In each assay plate one column remained untransfected to serve as a blank luminescence signal.
Serial dilution of test compounds was performed in DMSO and transferred to medium. Next, 25 μL of media-diluted compounds series were transferred to an assay plate containing cells and transfection media. The final concentration of DMSO in treated wells was 0.2%. Serial dilutions of compounds were added to an assay plate immediately after transfection. Compounds were tested in triplicates. The assay plate was then incubated with transfection reagent and compounds at 37° C. in an atmosphere of 5% CO2 for 72 hours.
Luciferase reporter activity was quantified with the Dual-Luciferase® Reporter Assay System (Promega) following the manufacturer's manual, with a passive lysis buffer volume increased to 30 μL and lysis incubation time increased to 20 min at room temperature with gentle shaking, to ensure complete cell lysis. Luminescence was measured using a SpectraMax i3×Multi-Mode Microplate Reader, with integration times of 100 ms and 10 ms applied to measure FLuc and RLuc signals, respectively. Relative LNE-1 activity was calculated as Firefly signal/Renilla signal*10,000. In order to determine IC50 values for each compound, dose response data were fit to a logistic using non-linear regression.

SMILES	IC50 (Homo sapiens, HeLa, 72 h) [nM]	further results
Cc1cn([C@H]2C[C@H](N=[N+]=[N-])[C@@H](CO)O2)c(=O)[nH]c1=O [AZT, zidovudine, reference compound]	630	–
Nc1ncnc2c1ncn2CCOCP(=O)(O)O [Adefovir, reference compound]	> 6250	–
Nc1ccn([C@H]2CO[C@@H](CO)S2)c(=O)n1 [Apricitabine, reference compound]	6340	–
O=C1Nc2ccc(Cl)cc2[C@@](C#CC2CC2)(C(F)(F)F)O1 [Efavirenz, reference compound]	> 50000	–
C=C1[C@H](CO)[C@@H](O)C[C@@H]1n1cnc2c(=O)[nH]c(N)nc21 [Entecavir, reference compound]	1450	–
Nc1ccn([C@@H]2CS[C@H](CO)O2)c(=O)n1 [Lamivudine, reference compound]	660	–
Cc1ccnc2c1NC(=O)c1cccnc1N2C1CC1 [Nevirapine, reference compound]	> 50000	–
Cc1cn([C@H]2C=C[C@@H](CO)O2)c(=O)[nH]c1=O [Stavudine, reference compound]	750	–
CC(C)OC(=O)[C@H](C)N[P@](=O)(CO[C@H](C)Cn1cnc2c(N)ncnc21)Oc1ccccc1 [Tenofovir Alafenamide (TAF), Tenofovir Alafenamide, reference compound]	–	IC50 (Homo sapiens, 72 hours): 10 nM
C[C@H](Cn1cnc2c(N)ncnc21)OCP(=O)(O)O [Tenofovir, reference compound]	–	IC50 (72 hours): 2700 nM
C#C[C@]1(CO)O[C@@H](n2cc(C)c(N)nc2=O)C[C@@H]1O [compound 6]	18600	–
C#C[C@]1(CO)O[C@@H](n2cnc3c(N)nc(N)nc32)C[C@@H]1O [compound 12]	–	IC50 (72 hours): 6.2 nM
CC#C[C@]1(CO)C=C[C@H](n2cc(C)c(=O)[nH]c2=O)O1 [compound 16]	> 25000	–
C#C[C@@]1(CO)C=C[C@H](n2cc(Br)c(=O)[nH]c2=O)O1 [compound 17]	910	–
C=C[C@@]1(CO)C=C[C@H](n2cc(C)c(=O)[nH]c2=O)O1 [compound 18]	12500	–
C#C[C@@]1(CO)C=C[C@H](n2cnc3c(N)nc(F)nc32)O1 [compound 19]	> 12500	–
C#C[C@]1(CO)O[C@@H](n2cnc3c(N)nc(N)nc32)C[C@@H]1O [compound 22]	–	IC50 (72 hours): 23400 nM
C#C[C@]1(CO)O[C@@H](n2cnc3c(N)ncnc32)C[C@@H]1O [compound 23]	> 50000	–
CC[C@]1(CO)O[C@@H](n2cc(C)c(=O)[nH]c2=O)C[C@@H]1O [compound 26]	2050	–
CC[C@]1(CO)O[C@@H](n2cnc3c(N)nc(N)nc32)C[C@@H]1O [compound 27]	–	IC50 (72 hours): 2.6 nM

More lines, in order of falling IC50 (Homo sapiens, HeLa, 72 h), values ahead:

IC50 (Homo sapiens, HeLa, 72 h) [nM]	SMILES	further results
530	O=c1[nH]cnc2c1ncn2[C@H]1CC[C@@H](CO)O1 [Didanosine, reference compound]	–
490	C#C[C@]1(CO)O[C@@H](n2cc(Br)c(=O)[nH]c2=O)C[C@@H]1O [compound 4]	–
480	Nc1nc(=O)n([C@@H]2CS[C@H](CO)O2)cc1F [Emtricitabine (FTC), Emtricitabine, reference compound]	–
390	C#C[C@]1(CO)O[C@@H](n2cc(C)c(=O)[nH]c2=O)C[C@@H]1O [compound 2]	–
190	CC(C)OC(=O)OCOP(=O)(CO[C@H](C)Cn1cnc2c(N)ncnc21)OCOC(=O)OC(C)C [Tenofovir Disoproxil, reference compound]	–
70	C#C[C@@]1(CO)C=C[C@H](n2cc(C)c(=O)[nH]c2=O)O1 [Censavudine, reference compound]	–
66	Nc1ccn([C@H]2CC[C@@H](CO)O2)c(=O)n1 [Zalcitabine, reference compound]	–
11	C=C[C@]1(CO)O[C@@H](n2cnc3c(N)nc(F)nc32)C[C@@H]1O [compound 20, (2R,3S,5R)-5-(6-amino-2-fluoro-9H-purin-9-yl)-2-(hydroxymethyl)-2-vinyltetrahydrofuran-3-ol]	–
10	C=C[C@]1(CO)O[C@@H](n2ccc(N)nc2=O)C[C@@H]1O [compound 24]	–
